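All cell lines were grown in 96-well plates and treated with compound for 48 hours. GI50: concentration for 50% inhibition of growth. TGI: total growth inhibition.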
Experiments:
Assay in all cases: growth of human tumour cells (NCI), 48 h
[1] = tested on: ACHN renal
[2] = tested on: COLO 205 colon
[3] = tested on: HCC-2998 colon
[4] = tested on: MDA-MB-231 breast
[5] = tested on: NCI-H23 lung
[6] = tested on: SF-268 CNS
[7] = tested on: TK-10 renal
[8] = tested on: U251 CNS
[9] = tested on: UO-31 renal
[10] = tested on: RPMI-8226 leukemia

Structure (SMILES)	TGI [1] [µM]	TGI [2] [µM]	TGI [3] [µM]	TGI [4] [µM]	TGI [5] [µM]	TGI [6] [µM]	TGI [7] [µM]	TGI [8] [µM]	TGI [9] [µM]	GI50 [1] [µM]	GI50 [2] [µM]	GI50 [4] [µM]	GI50 [5] [µM]	GI50 [10] [µM]	TGI [10] [µM]	GI50 [6] [µM]	GI50 [7] [µM]	GI50 [8] [µM]	GI50 [9] [µM]	GI50 [3] [µM]
NCC(Cc1ccccc1)P(=O)(O)O (stereo not given)	> 100	> 100	> 100	> 100	> 100	> 100	> 100	> 100	> 100	–	–	–	–	–	–	–	–	–	–	–
CCOC(=O)C1=C(C)N(Cc2ccc(Cl)cc2Cl)[C@]2(C#N)C(O)=C(Cl)C(Cl)=C(O)[C@]12C#N	> 100	> 100	–	98.9	80.4	> 100	> 100	> 100	> 100	> 100	> 100	26.7	16.3	21.2	47.3	42.1	84.7	44.8	92	–
C=C(C)[C@@H]1CC[C@]2(C(=O)n3ccnc3)CC[C@]3(C)[C@H](CC[C@@H]4[C@@]5(C)CCCNC(C)(C)[C@@H]5CC[C@]43C)[C@@H]12	–	3.25	3.2	3.3	3.89	9.21	6.82	3.14	2.72	–	1.52	1.78	1.78	–	–	2.77	2.58	1.7	1.38	1.64
O=c1c2ccccc2n2cnc3ccc(NCCNCCO)c1c32	7.42	5.09	11.3	6.58	8.12	8.01	15.7	13.6	11.6	–	–	–	–	–	17	–	–	–	–	–
CN1CCOCCOCCOc2ccccc2NC(=O)c2nc(cnc2N)-c2ccc(cc2)S1(=O)=O	> 100	–	> 100	> 100	–	> 100	49.4	> 100	–	0.0504	–	32.4	–	–	–	11.1	11.3	5.16	–	> 100
O=C(O)Cn1ccc(=O)c2c([N+](=O)[O-])cccc21	> 100	> 100	> 100	> 100	> 100	> 100	> 100	> 100	> 100	–	–	–	–	–	–	–	–	–	–	–
CCOC(=O)n1c2ccccc2c(=O)n1CCO	> 100	> 100	> 100	> 100	> 100	> 100	> 100	> 100	> 100	–	–	–	–	–	–	–	–	–	–	–
COc1cc2c3c(n(CCCN4CCSCC4)c(=O)c2cc1OC)-c1cc2c(cc1C3=O)OCO2	> 100	> 100	> 100	89.9	> 100	> 100	82.9	> 100	> 100	58.6	> 100	25.2	> 100	–	–	28.2	27.2	> 100	> 100	35.1
COc1ncc2cc1NS(=O)(=O)c1cccc(c1)C(=O)NCC1=CC=C(S1)c1ncnc3c1SC2=C3C	8.33	0.555	0.574	12.8	–	11.8	10.4	2.03	1.7	0.592	0.204	0.139	–	0.202	0.588	0.37	0.51	0.17	0.0733	0.203
O=CC(O)C(O)C(OC1OC(CO)C(O)C(O)C1O)C(O)CO (stereo not given) (tested in a mixture with another compound)	> 100	> 100	–	91.5	> 100	> 100	> 100	> 100	> 100	–	–	–	–	–	59.2	–	–	–	–	–
O=C1c2ccccc2-c2c1c1ccc([N+](=O)[O-])cc1c(=O)n2CCCCl	> 100	–	–	57.7	54.1	> 100	> 100	> 100	> 100	4.29	–	11.3	3.52	1.36	33.3	23.5	37.8	3.08	6.4	–
Cc1ccc(-c2nc(C(Cl)Cl)nc3cc(C)nn23)cc1	3.6	3.41	2.59	> 100	2.75	> 100	> 100	–	> 100	0.783	1.04	2.34	0.742	5.02	> 100	2.69	3.55	–	3.38	1.18
COC(=O)[C@]1(C)CCCC2(C)C3=C(CCC21)CC1(CC3)SCCS1 (stereo not given in full)	> 10	> 10	> 10	> 10	> 10	> 10	> 10	> 10	–	–	–	–	–	–	> 10	–	–	–	–	–
O=C(Nc1ccc(Cl)c(C(F)(F)F)c1)C(=O)c1c(O)c2ccccc2oc1=O	> 100	–	> 100	> 100	> 100	> 100	> 100	> 100	> 100	–	–	–	–	–	> 100	–	–	–	–	–

From PubChem BioAssay (NCI)
